Source: article PMC5598505 (Toxicology Reports, 2014)

Target: T1, aromatase (CYP19A1) (Homo sapiens, UniProt P11511)
T1 sequence (P11511 1-503): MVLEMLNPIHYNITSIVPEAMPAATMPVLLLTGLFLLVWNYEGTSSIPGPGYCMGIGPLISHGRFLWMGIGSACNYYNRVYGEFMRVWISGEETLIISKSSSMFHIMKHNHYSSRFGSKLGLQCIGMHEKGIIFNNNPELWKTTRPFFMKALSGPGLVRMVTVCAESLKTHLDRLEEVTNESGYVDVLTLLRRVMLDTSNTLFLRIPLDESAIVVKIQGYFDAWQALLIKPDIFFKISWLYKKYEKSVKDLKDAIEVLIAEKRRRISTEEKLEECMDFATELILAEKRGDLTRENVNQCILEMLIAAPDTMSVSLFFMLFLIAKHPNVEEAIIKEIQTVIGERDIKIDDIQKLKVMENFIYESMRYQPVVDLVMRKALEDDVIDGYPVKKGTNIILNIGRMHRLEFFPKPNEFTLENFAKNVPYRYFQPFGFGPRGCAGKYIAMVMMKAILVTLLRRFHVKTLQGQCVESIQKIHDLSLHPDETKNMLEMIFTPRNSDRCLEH
Assay: tritiated water-release aromatase assay in KGN cells after 24-h exposure
Format: cell-based

Structure (SMILES): CC(C)=CCc1c(O)cc(O)c2c1O[C@H](c1ccc(O)cc1)CC2=O [8-PN, 8-prenylnaringenin]
- IC50: 8 nM
